The source of these data is patent US20250134794A1, “BIOACTIVE WALNUT PEPTIDES AND COMPOSITIONS FOR TOPICAL TREATMENT OF SKIN” (L'OREAL, priority 2023, published 2025).

Where no end group is shown, it is not given here.

What all share (assay type): cell-based
The subject of experiment [1] is Adult Dermal Human Fibroblasts. Put plainly: Autophagic vacuoles in aged fibroblasts (Autophagy Assay Kit). As to conditions: 7 days. Details: key: “↑” indicates and increase; “↓” indicates a decrease; “↔” indicates no change. The method, then:
Adult Dermal Human Fibroblasts (Lot 2485, Passage 5, Cell Applications) were expanded and seeded into a 12-well glass bottom plate at a density of 10,000 cells/well. Cells were grown in Eagle's Minimal Essential Medium (EMEM) supplemented with Fetal Bovine Serum (FBS) and Penicillin-Streptomycin. Cells attached overnight and then culture media was aspirated and replaced with media containing either 100 uM or 250 uM of Peptide I, Peptide II, or Peptide III. Cells were cultured for 7 days with treatment with renewal of treatment medium every other day with the exception of weekends. On day 7, cells were stained and imaged for presence of autophagic vacuoles following the protocol in the Autophagy Assay Kit (ab139484, Abcam). The images were compared to determine whether the number of autophagic vacuoles increased, decreased, or remained unchanged. The results are reported below, in Table 4, where “↑” indicates and increase, “↓” indicates a decrease, and “↔” indicates no change.

In experiment [2] the test system is hepatocyte growth factor (HGF). Put plainly: Hepatocyte growth factor generated by reconstructed human epidermis (LEGENDplex Human Growth Factor Panel). As to conditions: 250 μM, 7 days, control = 1.00. The procedure:
(§1) Reconstructed human epidermis (RHE) (EPISKIN/S/13, Episkin) was received and samples were prepared for use. Upon arrival, inserts containing the RHE were removed from the multi-plate and placed in a 12-well plate containing maintenance medium. Tissue serving as untreated control were placed in regular maintenance medium; treatment groups were placed in maintenance medium containing 250 uM of Peptide I, II, or III alone or in combination. Medium was aspirated and replaced every other day with the exception of weekends. RHE was cultured at air-liquid interface at 37C, 5% CO2 and saturated humidity for 7 days. Media was collected at the end of the culture period. Growth factors were quantified by running a LEGENDplex Human Growth Factor Panel (Catalogue #740809, Biolegend. Protein in the media supernatant was also quantified using the Pierce BCA Protein Assay Kit (Catalogue #741061, ThermoFisher). Microsoft Excel and GraphPad Prism were used for additional analysis and data presentation. The amounts of epidermal growth factor (EGF), hepatocyte growth factor (HGF), and transforming growth factor alpha (TGFa) generated by the RHE are shown below in Table 2 and graphically shown in FIG. 2(a) (for EGF) and FIG. 2(b) (for HGF), and FIG. 2(c) (for TGFa).

The test system of the next experiment is Keratinocyte stem cells. Put plainly: Holoclone count of keratinocyte stem cells. As to conditions: 96 hours, control 24.80 ± 6.14. The procedure: Keratinocyte stem cells (Lot KSC870, Passage 2, Bioalternatives) were seeded in 96-well plates and cultured in Keratinocyte-SFM supplemented with Epidermal Growth Factor and Pituitary Extract. After 4 hours, media was replaced with that containing Peptide II or Peptide III, alone or in combination. Cells were incubated for 96 hours with treatment renewal after 24 hours. After 96 hours, the medium was removed, and cells were fixed with methanol at −20C. Cells were then stained for 10 minutes with a Papanicolaou solution and imaged. The number of holoclone clones were counted. Data was analyzed and plotted using GraphPad Prism. The holocolone count relative to control (normalized) is shown below in Table 3 for different concentrations of peptide II, Peptide III, and combinations of Peptide II and Peptide III.

In experiment [3] the test system is transforming growth factor alpha (TGFa). Put plainly: Transforming growth factor alpha generated by reconstructed human epidermis (LEGENDplex Human Growth Factor Panel). As to conditions: 250 μM, 7 days, control = 1.00. The method, then:
as §1

Experiment [4] relates to Adult Dermal Human Fibroblasts. Put plainly: Mitochondrial activity in aged fibroblasts (TMRE-Mitochondrial Membrane Potential Assay Kit). As to conditions: 250 μM, 7 days, TMRE stain; control = 1.00. The method, then:
Adult Dermal Human Fibroblasts (Lot 2485, Passage 5, Cell Applications) were expanded and seeded into a 12-well glass bottom plate at a density of 10,000 cells/well. Cells were grown in Eagle's Minimal Essential Medium (EMEM) supplemented with Fetal Bovine Serum (FBS) and Penicillin-Streptomycin. Cells attached overnight and then culture media was aspirated and replaced with media containing either 100 uM or 250 uM of Peptide I, Peptide II, or Peptide III. Cells were cultured for 7 days with treatment with renewal of treatment medium every other day with the exception of weekends. On day 7, cells were stained with tetramethylrhodamine ethyl ester (TMRE) and imaged for mitochondrial activity following the protocol in the TMRE-Mitochondrial Membrane Potential Assay Kit (ab113852, Abcam). The active mitochondria (mean intensity normalized to control) were determined and are shown below, in Table 5.

The test system of the next experiment is Interleukin 6 (IL-6). Put plainly: Interleukin-6 released from Adult Dermal Human Fibroblasts (LEGENDplex Human Inflammation Panel). As to conditions: 4 days treatment, concentration not given (100 uM or 250 uM). The method, then:
(§2) Adult Dermal Human Fibroblasts (Lot 2485, Passage 5, Cell Applications) were expanded and seeded into a 48-well plate at a density of 5,000 cells/well. Cells were grown in Eagle's Minimal Essential Medium (EMEM) supplemented with Fetal Bovine Serum (FBS) and Penicillin-Streptomycin. Cells attached overnight and then culture media was aspirated and replaced with media containing either 100 uM or 250 uM of Peptide I, Peptide II, or Peptide III. Cells were cultured for […] with treatment with renewal of treatment medium every other day with the exception of weekends. Media was collected at the end of the culture period. Inflammatory cytokines were quantified by running a LEGENDplex Human Inflammation Panel 1 13-plex (Catalogue #740809, Biolegend. Protein in the media supernatant was also quantified using the Pierce BCA Protein Assay Kit (Catalogue #23225, ThermoFisher). Microsoft Excel and GraphPad Prism were used for additional analysis and data presentation. The amounts of Interleukin 6 (IL-6) and Interleukin 8 (IL-8) released from the Adult Dermal Human Fibroblasts are shown below in Table 1 and graphically depicted in FIG. 1(a) (for IL-6) and FIG. 1(b) (for IL-8).

Experiment [5] relates to epidermal growth factor (EGF). Put plainly: Epidermal growth factor generated by reconstructed human epidermis (LEGENDplex Human Growth Factor Panel). As to conditions: 250 μM, 7 days, control = 1.00. The method, then: as §1
A further experiment relates to Interleukin 8 (IL-8). Put plainly: Interleukin-8 released from Adult Dermal Human Fibroblasts (LEGENDplex Human Inflammation Panel). As to conditions: 4 days treatment, concentration not given (100 uM or 250 uM). The method, then: as §2

As for KVPPLLY [Peptide III], the figures for the “Autophagic Vacuoles Presence (Compared to Control)” value in experiment [1] (100 μM) and in experiment [1] (250 μM) were “↑” and “↔”, respectively. Besides, in experiment [2], the “HGF/μg Protein” value is 1.01 ± 0.17. For the same substance, the values for the Holoclone count with Keratinocyte stem cells (0.2 mM) and in the experiment on Keratinocyte stem cells (0.4 mM) were 27.40 ± 6.13 and 36.50 ± 5.97, respectively. Further, the “TGFa/μg Protein” value in experiment [3] turned out to be 1.93 ± 0.60. Also, the “Active Mitochondria (Mean Intensity Normalized to Control)” value in experiment [4] was 0.97 ± 0.15. In addition, the “Pg IL-6/μg Protein” value with Interleukin 6 (IL-6) (first line of each peptide) is on record as 291.73 ± 61.03 Pg/μg Protein; in the experiment on Interleukin 6 (IL-6) (second line of each peptide), 333.61 ± 38.37 Pg/μg Protein. Also, the “EGF/μg Protein” value in experiment [5] is 1.79 ± 0.28. The “Pg IL-8/μg Protein” value worked out at 31.14 ± 22.26 Pg/μg Protein in the experiment on Interleukin 8 (IL-8) (first line of each peptide) and 32.58 ± 4.06 Pg/μg Protein in the experiment with Interleukin 8 (IL-8) (second line of each peptide).

Take TWLPLPR [Peptide I]: the “Autophagic Vacuoles Presence (Compared to Control)” value in experiment [1] (100 μM) and in experiment [1] (250 μM) was “↑” throughout. The “HGF/μg Protein” value in experiment [2] came to 0.98 ± 0.20. The “TGFa/μg Protein” value in experiment [3] is 1.37 ± 0.23. Also, in experiment [4], the “Active Mitochondria (Mean Intensity Normalized to Control)” value stood at 1.158 ± 0.17. The “Pg IL-6/μg Protein” value with Interleukin 6 (IL-6) (first line of each peptide) is 154.52 ± 32.33 Pg/μg Protein; in the experiment on Interleukin 6 (IL-6) (second line of each peptide) it was 126.97 ± 29.10 Pg/μg Protein. Besides, the “EGF/μg Protein” value in experiment [5] was determined as 1.58 ± 0.17. Also, the results for the “Pg IL-8/μg Protein” value in the experiment on Interleukin 8 (IL-8) (first line of each peptide) and in the experiment on Interleukin 8 (IL-8) (second line of each peptide) were 22.72 ± 6.45 Pg/μg Protein and 42.71 ± 11.29 Pg/μg Protein, respectively.

As for YVLLPSPK [Peptide II], the “Autophagic Vacuoles Presence (Compared to Control)” value in experiment [1] (100 μM) and in experiment [1] (250 μM) was “↑” throughout. For the same substance, in experiment [2], the “HGF/μg Protein” value is listed as 1.28 ± 0.25. Also, the Holoclone count with Keratinocyte stem cells (0.2 mM) is listed as 27.60 ± 7.59; in the experiment on Keratinocyte stem cells (0.4 mM) it was 34.30 ± 8.85. Also, the “TGFa/μg Protein” value in experiment [3] is 1.56 ± 0.29. Moreover, the “Active Mitochondria (Mean Intensity Normalized to Control)” value in experiment [4] came to 1.00 ± 0.19. The “Pg IL-6/μg Protein” value in the experiment on Interleukin 6 (IL-6) (first line of each peptide) is recorded as 265.86 ± 58.08 Pg/μg Protein; with Interleukin 6 (IL-6) (second line of each peptide), 257.53 ± 38.82 Pg/μg Protein. Further, the “EGF/μg Protein” value in experiment [5] was found to be 1.23 ± 0.16. Further, the “Pg IL-8/μg Protein” value with Interleukin 8 (IL-8) (first line of each peptide) was 20.36 ± 5.39 Pg/μg Protein; in the experiment with Interleukin 8 (IL-8) (second line of each peptide), 35.68 ± 11.37 Pg/μg Protein.
